This is an account of results in US11618744B2, “Benzoimidazoles as prolyl hydroxylase inhibitors” (Janssen Pharmaceutica NV, priority 2008, dated 2023).

The structures appear in SMILES notation.

The subject of the test is Hep-3B cells. Kind of test: Cellular assay: erythropoietin (EPO) secretion in Hep-3B cells. To be noted: 24 h incubation, compound at 100 μM, percentage of EPO secretion of control compound 7-[(4-Chloro-phenyl)-(5-methyl-isoxazol-3-ylamino)-methyl]-quinolin-8-ol. The test is classed as cell-based, human.
Take `O=C(O)c1cnn(-c2nc3ccccc3[nH]2)c1` [Example 1, 1-(1H-Benzoimidazol-2-yl)-1H-pyrazole-4-carboxylic acid]: the “Cellular % EPO Stimulation” value is reported as 7.1%.
The figure for `Cc1cc2nc(-n3cc(C(=O)O)cn3)[nH]c2cc1C` [Example 5, 1-(5,6-Dimethyl-1H-benzoimidazol-2-yl)-1H-pyrazole-4-carboxylic acid] is 2.1%.
For `O=C(O)c1cnn(-c2nc3cc(-c4cccc(OCc5ccccc5Cl)c4)ccc3[nH]2)c1` [Example 13, 1-{5-[3-(2-Chloro-benzyloxy)-phenyl]-1H-benzoimidazol-2-yl}-1H-pyrazole-4-carboxylic acid] the value was 18%; for `O=C(O)c1cnn(-c2nc3cc(-c4cccc(C(F)(F)F)c4)ccc3[nH]2)c1` [Example 17, 1-[5-(3-Trifluoromethyl-phenyl)-1H-benzoimidazol-2-yl]-1H-pyrazole-4-carboxylic acid], 5.8%.
The figure for `Cc1nn(-c2nc3cc(Cl)c(Cl)cc3[nH]2)c(C)c1C(=O)O` [Example 22, 1-(5,6-Dichloro-1H-benzoimidazol-2-yl)-3,5-dimethyl-1H-pyrazole-4-carboxylic acid] is 0.47%.
